Source: PubChem BioAssay (NCI)
“And” between values parts separate entries of the source, which are not always exact repeats. Identical values can stand only once.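 Grown in 96-well plates, cells were treated for 48 hours with each compound at five concentrations. Insufficient inhibition: endpoint recorded as highest concentration tested. The concentration for 50% growth inhibition is given as GI50. Definition used: TGI = concentration required for complete inhibition of growth.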

Experiments:
Experiment in all cases: NCI tumour cell line growth inhibition, 48 h
NCI-H226 lung = system: NCI-H226 lung
SK-MEL-2 melanoma = system: SK-MEL-2 melanoma
U251 CNS = system: U251 CNS
UACC-257 melanoma = system: UACC-257 melanoma
SW-620 colon = system: SW-620 colon
NCI-H460 lung = system: NCI-H460 lung
SNB-19 CNS = system: SNB-19 CNS
NCI/ADR-RES ovarian = system: NCI/ADR-RES ovarian
MDA-MB-435 = system: MDA-MB-435
HOP-92 NSCLC = system: HOP-92 NSCLC

Structure (SMILES): Cc1ccc(/C=C/C(=O)c2ccc(Cl)c(Cl)c2)cc1
- TGI (NCI-H226 lung): > 100 µM
- TGI (SK-MEL-2 melanoma): > 100 µM
- TGI (U251 CNS): > 100 µM
- TGI (UACC-257 melanoma): > 100 µM
- TGI (SW-620 colon): > 100 µM
- TGI (NCI-H460 lung): > 100 µM
- TGI (SNB-19 CNS): > 100 µM

Structure (SMILES): CC1=CCC2CC1C(C(=O)c1c[nH]c3ccccc13)=NC2(C)C (centres undefined)
- TGI (NCI-H226 lung): > 100 µM
- TGI (NCI/ADR-RES ovarian): > 100 µM
- TGI (U251 CNS): > 100 µM
- TGI (UACC-257 melanoma): 93.4 µM
- TGI (MDA-MB-435): > 100 µM
- TGI (SW-620 colon): > 100 µM
- TGI (NCI-H460 lung): > 100 µM
- TGI (SNB-19 CNS): > 100 µM

Structure (SMILES): CC1=C(C#N)C23C(=O)N(c4ccccc4)C(=O)C2=C(O)C=CC3(O)N1Cc1ccc(Cl)cc1Cl (centres undefined)
- GI50 (NCI-H226 lung): 2.54 µM
- TGI (NCI-H226 lung): 9.96 µM
- GI50 (SK-MEL-2 melanoma): 2.98 µM
- TGI (SK-MEL-2 melanoma): 11.5 µM
- GI50 (NCI/ADR-RES ovarian): 16.2 µM
- TGI (NCI/ADR-RES ovarian): 39.5 µM
- GI50 (HOP-92 NSCLC): 3.02 µM
- TGI (HOP-92 NSCLC): 13.3 µM
- GI50 (U251 CNS): 2.86 µM
- TGI (U251 CNS): 11.3 µM
- GI50 (UACC-257 melanoma): 13.2 µM
- TGI (UACC-257 melanoma): 27 µM
- GI50 (MDA-MB-435): 1.89 µM
- TGI (MDA-MB-435): 4.68 µM
- GI50 (SW-620 colon): 2.07 µM
- TGI (SW-620 colon): 4.29 µM
- GI50 (NCI-H460 lung): 3.09 µM
- TGI (NCI-H460 lung): 12.3 µM
- GI50 (SNB-19 CNS): 3.8 µM
- TGI (SNB-19 CNS): 14.9 µM

Structure (SMILES): Cc1cccc(-c2nnc3s/c(=C\c4ccc(N(C)C)cc4)c(=O)n23)c1
- TGI (NCI-H226 lung): > 100 µM
- TGI (SK-MEL-2 melanoma): > 100 µM
- TGI (HOP-92 NSCLC): > 100 µM
- TGI (U251 CNS): > 100 µM
- TGI (UACC-257 melanoma): > 100 µM
- TGI (SW-620 colon): > 100 µM
- TGI (NCI-H460 lung): > 100 µM
- TGI (SNB-19 CNS): > 100 µM

Structure (SMILES): NC(=S)N/N=C/c1ccc(OC(=O)COc2cc(Cl)c(Cl)cc2Cl)cn1
- GI50 (NCI-H226 lung): 15.8 µM
- TGI (NCI-H226 lung): 56.7 µM
- GI50 (SK-MEL-2 melanoma): 12.7 µM
- TGI (SK-MEL-2 melanoma): > 100 µM
- GI50 (NCI/ADR-RES ovarian): 3.23 µM
- TGI (NCI/ADR-RES ovarian): > 100 µM
- GI50 (HOP-92 NSCLC): 1.54 µM
- TGI (HOP-92 NSCLC): 26.6 µM
- GI50 (U251 CNS): 3.52 µM
- TGI (U251 CNS): > 100 µM
- GI50 (UACC-257 melanoma): 11 µM
- TGI (UACC-257 melanoma): 51.5 µM
- GI50 (MDA-MB-435): 6.68 µM
- TGI (MDA-MB-435): > 100 µM
- GI50 (SW-620 colon): 5.75 µM
- TGI (SW-620 colon): > 100 µM
- GI50 (NCI-H460 lung): 6.1 µM
- TGI (NCI-H460 lung): > 100 µM
- GI50 (SNB-19 CNS): 5.87 µM
- TGI (SNB-19 CNS): > 100 µM

Structure (SMILES): Nc1ncc(-c2ccc3ncnc(Nc4cccc(Cl)c4)c3c2)cn1
- GI50 (NCI-H226 lung): 0.294 µM
- GI50 (HOP-92 NSCLC): 0.00741 µM
- TGI (HOP-92 NSCLC): 0.0974 µM
- GI50 (U251 CNS): 0.538 µM
- GI50 (UACC-257 melanoma): > 100 µM
- TGI (UACC-257 melanoma): > 100 µM
- GI50 (SNB-19 CNS): 0.387 µM and 2.28 µM
- TGI (SNB-19 CNS): > 100 µM

Structure (SMILES): Cc1ccc(CNc2ccc3nc(CCC4CCCCC4)[nH]c3c2)cc1
- GI50 (NCI-H226 lung): 1.77 µM
- TGI (NCI-H226 lung): 3.92 µM
- GI50 (SK-MEL-2 melanoma): 2.31 µM
- TGI (SK-MEL-2 melanoma): 5.5 µM
- GI50 (NCI/ADR-RES ovarian): 2.69 µM
- TGI (NCI/ADR-RES ovarian): 9.51 µM
- GI50 (HOP-92 NSCLC): 1.23 µM
- TGI (HOP-92 NSCLC): 3.49 µM
- GI50 (U251 CNS): 1.79 µM
- TGI (U251 CNS): 3.62 µM
- GI50 (UACC-257 melanoma): 2.37 µM
- TGI (UACC-257 melanoma): 6.44 µM
- GI50 (MDA-MB-435): 2.09 µM
- TGI (MDA-MB-435): 4.85 µM
- GI50 (SW-620 colon): 1.99 µM
- TGI (SW-620 colon): 4.64 µM
- GI50 (NCI-H460 lung): 2.99 µM
- TGI (NCI-H460 lung): 8.6 µM
- GI50 (SNB-19 CNS): 3.54 µM
- TGI (SNB-19 CNS): > 100 µM

Structure (SMILES): CC(C)(C)C(=O)N1C(C(=O)O)Cc2ccccc2[C@@H]1Cc1ccccc1 (some centres undefined)
- TGI (NCI-H226 lung): > 100 µM
- TGI (SK-MEL-2 melanoma): > 100 µM
- TGI (HOP-92 NSCLC): > 100 µM
- TGI (U251 CNS): > 100 µM
- TGI (UACC-257 melanoma): > 100 µM
- TGI (SW-620 colon): > 100 µM
- TGI (NCI-H460 lung): > 100 µM
- TGI (SNB-19 CNS): > 100 µM
